# In PMC11650849, “Brain endothelial permeability, transport, and flow assessed over 10 orders of magnitude using the in situ brain perfusion technique” (Fluids and Barriers of the CNS, 2024):
# Where two headings read alike, the source gives them in different places.
# Legend:
# [1] = for Extraction (unbound) / Brain vascular extraction (total): calculated at brain blood flow […]; for Extraction (unbound): free drug; for Brain vascular extraction (total): with rat serum fu; for Brain Kin: calculated at brain blood flow […] and rat serum fu; for Maximal flow—90% extraction, PcS/2.3: pH 7.4
# [2] = cited from earlier work; for Log Poct: octanol partition coefficient
# [3] = cited from earlier work
# [4] = In situ rat brain perfusion (brain uptake Kin, extraction E, BBB PS); conditions: for Log Pc: Pc in cm/s; for Log Po: Po in cm/s; for Log PoS: PoS in mL/s/g; for PcS: cerebral cortex, S = physiological saline, AB = artificial blood
# [5] = Neutral fraction at pH 7.4 calculated from pKa; format: physicochemical; conditions: neutral fraction at perfusion fluid pH 7.40, calculated from pKa
# [6] = rat, brain
# [7] = rat, in vivo
# [8] = ref Hansch et al. [123], Avdeef [46] or other sources
# [9] = facilitated nutrients, transporter not given
molecule,measurement,setting,value
CC(=O)N[C@@H](CS)C(=O)O [N-acetyl-cysteine],Extraction (unbound),[1],7.60E-05%
same,Brain vascular extraction (total),[1],7.60E-05%
same,Log Doct pH=7.4,[2],−3.70
same,"fu,.p",[3]; rat in vivo measurements,1.00
same,Log Pc,[4],−7.74
same,Log Po,[4],−7.74
same,Log PoS,[4],−5.74
same,Pc,[4]; S assumed 100 cm^2/g,0.0182 ×10⁻⁶ cm/s
same,PoS,[4]; brain vascular intrinsic PoS,1.82e-06 mL/s/g
same,PcS,[4]; flow 0.1–[…],1.82e-06 mL/s/g
CN(C)CCCN1c2ccccc2Sc2ccc(Cl)cc21 [Chlorpromazine],fn (%),[5],1.42%
same,half-life,[6],61.1 min
same,BBB PcS,[7]; pH 7.4,0.31 ± 0.05 mL/s/g
same,Extraction (Kin/F),[7]; pH 7.4,100%
same,Log Pc,[7]; pH 7.4,−2.51
same,Log PoS,[7]; pH 7.4,1.30
same,Pc,[7]; pH 7.4,3090 ×10⁻⁶ cm/s
same,PcS,[7]; pH 7.4,0.31 mL/s/g
same,PoS,[7]; pH 7.4,19.8 mL/s/g
same,Log Po,[7]; pH 7.4,−0.70
same,Po,[7]; pH 7.4,0.20 cm/s
same,Brain Kin,[1],0.00885 mL/s/g
same,Extraction (unbound),[1],100%
same,Brain vascular extraction (total),[1],36.6%
same,"Maximal flow—90% extraction, PcS/2.3",[1]; protein-free saline,0.13 mL/s/g
same,"fu,.p",[3]; rat in vivo measurements,0.0354
CN1C(=O)C(O)N=C(c2ccccc2)c2cc(Cl)ccc21 (centres unmarked) [Temazepam],fn (%),[5],100%
same,"fu,.p",[3]; rat,0.18
NC(=O)c1cccnc1 [Nicotinamide],fn (%),[5],100%
same,Log Poct,[2]; [8],−0.34
same,Log Doct pH=7.4,[2]; [8],−0.34
O=C1Nc2ccc(Cl)cc2C(c2ccccc2)=NC1O (centres unmarked) [Oxazepam],fn (%),[5],100%
same,"fu,.p",[3]; rat,0.17
CCO [Ethanol],Brain Kin,[1],0.0195 mL/s/g
same,Extraction (unbound),[1],83.0%
same,Brain vascular extraction (total),[1],81.4%
same,"fu,.p",[3]; rat,0.95
CN1C(=O)CN=C(c2ccccc2F)c2cc([N+](=O)[O-])ccc21 [Flunitrazepam],fn (%),[5],100%
same,Best fit PcS,[7]; pH 7.4,0.14 mL/s/g
same,Log Poct,[2]; [8],2.03
same,Log Doct pH=7.4,[2]; [8],2.03
same,"fu,.p",[3]; rat in vivo measurements,0.19
Cn1c(=O)c2[nH]cnc2n(C)c1=O [Theophylline],fn (%),[5],100%
same,half-life,[6],4.6 min
same,Log Poct,[2]; [8],0.00
same,Log Doct pH=7.4,[2]; [8],0.00
NC(N)=O [Urea],fn (%),[5],100%
same,Log Poct,[2]; [8],−1.66
same,Log Doct pH=7.4,[2]; [8],−1.66
same,"fu,.p",[3]; rat in vivo measurements,1.00
Cc1nnc2n1-c1ccc(Cl)cc1C(c1ccccc1Cl)=NC2 [Triasolam],fn (%),[5],100%
C[C@]12CC[C@H](O)CC1=CC[C@@H]1[C@@H]2CC[C@]2(C)C(=O)CC[C@@H]12 [DHEA],fn (%),[5],100%
same,Log Poct,[2]; [8],3.00
same,Log Doct pH=7.4,[2]; [8],3.00
same,"fu,.p",[3]; rat in vivo measurements,0.05
CCCCO [Butanol],fn (%),[5],100%
same,Pc,[7],1470 ×10⁻⁶ cm/s
same,PcS,[7],0.15 mL/s/g
same,PoS,[7],0.13 mL/s/g
same,Po,[7],0.00127 cm/s
same,Brain Kin,[1],0.0229 mL/s/g
same,Extraction (unbound),[1],99.8%
same,Brain vascular extraction (total),[1],97.5%
same,Peak flow rate for 90% E,[1]; protein-free physiologic saline pH 7.4,3.8 mL/min/g
same,"Maximal flow—90% extraction, PcS/2.3",[1]; protein-free saline,0.064 mL/s/g
same,"fu,.p",[3]; rat,0.60
O=C(O)c1cccnc1C(=O)O [Quinolinic acid],Log Pc,[7]; pH 7.4,−7.77
same,Log PoS,[7]; pH 7.4,−3.13
same,Pc,[7]; pH 7.4,0.017 ×10⁻⁶ cm/s
same,PcS,[7]; pH 7.4,1.7e-06 mL/s/g
same,PoS,[7]; pH 7.4,0.000743 mL/s/g
same,Log Po,[7]; pH 7.4,−5.13
same,Po,[7]; pH 7.4,7.43e-06 cm/s
same,Brain Kin,[1],0.00019 mL/s/g
same,Extraction (unbound),[1],0.01%
same,Brain vascular extraction (total),[1],0.0071%
same,Log Poct,[2]; [8],−1.44
same,Log Doct pH=7.4,[2]; [8],−4.08
same,"fu,.p",[3]; rat in vivo measurements,1.00
CCCO [Propanol],fn (%),[5],100%
same,"fu,.p",[3]; rat,0.74
Nc1c(O)cccc1C(=O)O [3-hydroxy-anthranilic acid],fn (%),[5],0.15%
same,Log Pc,[7]; pH 7.4,−5.88
same,Log PoS,[7]; pH 7.4,−1.05
same,Pc,[7]; pH 7.4,1.31 ×10⁻⁶ cm/s
same,PcS,[7]; pH 7.4,0.00013 mL/s/g
same,PoS,[7]; pH 7.4,0.0886 mL/s/g
same,Log Po,[7]; pH 7.4,−3.05
same,Po,[7]; pH 7.4,0.000886 cm/s
same,Brain Kin,[1],0.000131 mL/s/g
same,Extraction (unbound),[1],0.54%
same,Brain vascular extraction (total),[1],0.54%
same,Log Poct,[2]; [8],1.05
same,Log Doct pH=7.4,[2]; [8],−1.78
same,"fu,.p",[3]; rat in vivo measurements,1.00
COc1ccc2cc([C@H](C)C(=O)O)ccc2c1 [Naproxen],fn (%),[5],0.05%
Nc1ccccc1C(=O)O [Anthranilic acid],fn (%),[5],0.33%
same,Log Poct,[2]; [8],1.21
same,Log Doct pH=7.4,[2]; [8],−1.27
same,"fu,.p",[3]; rat in vivo measurements,0.50
same,Log Pc,[4],−4.92
same,Log Po,[4],−2.44
same,Log PoS,[4],−0.44
same,Pc,[4]; S assumed 100 cm^2/g,11.9 ×10⁻⁶ cm/s
same,Po,[4]; S assumed 100 cm^2/g,3600 ×10⁻⁶ cm/s
same,PoS,[4]; brain vascular intrinsic PoS,0.36 mL/s/g
same,PcS,[4]; flow 0.1–[…],0.0012 mL/s/g
same,PoS,"[4]; intrinsic PS of neutral solute, PoS = PcS/fn, flow 0.1–[…]",0.36 mL/s/g
CCCCNC(=O)NS(=O)(=O)c1ccc(C)cc1 [Tolbutamide],fn (%),[5],0.61%
same,half-life,[6],3.27 min
N[C@@H](CCC(=O)O)C(=O)O [L-Glutamate],Log PS,[4]; [9],−3.82
same,PS,[4]; [9],0.000151 mL/s/g
CN(C)CCOC(c1ccccc1)c1ccccc1 [Diphenhydramine],fn (%),[5],1.96%
O=C(O)c1cc(=O)c2ccccc2[nH]1 [Kynurenic acid],fn (%),[5],4.6E−7%
same,Log Pc,[7]; pH 7.4,−5.92
same,Log PoS,[7]; pH 7.4,0.42
same,PcS,[7]; pH 7.4,0.00012 mL/s/g
same,PoS,[7]; pH 7.4,2.60 mL/s/g
same,Log Po,[7]; pH 7.4,−1.58
same,Po,[7]; pH 7.4,0.026 cm/s
same,"fu,.p",[3]; rat in vivo measurements,1.00
CC(N)=O [Acetamide],fn (%),[5],100%
Cc1nnc2n1-c1ccc(Cl)cc1C(c1ccccc1)=NC2 [Alprasolam],fn (%),[5],100%
Erythrosine B,fn (%),[5],7.8E−06%
same,Log Pc,[7],−5.19
same,Log PoS,[7],3.92
same,Pc,[7],6.53 ×10⁻⁶ cm/s
same,PcS,[7],0.00065 mL/s/g
same,Log Po,[7],1.92
same,Po,[7],83.48 cm/s
same,Brain Kin,[1],6.53e-06 mL/s/g
same,Extraction (unbound),[1],2.7%
same,Brain vascular extraction (total),[1],0.027%
same,Log Doct pH=7.4,[2],−0.15
same,"fu,.p",[3]; rat,0.01
CCCCCCO [Hexanol],fn (%),[5],100%
same,Extraction (unbound),[1],99.9%
same,Brain vascular extraction (total),[1],89.1%
same,"fu,.p",[3]; rat in vivo measurements,0.30
CC(C)(C)OC(=O)CCCc1ccc(N(CCCl)CCCl)cc1 [t-butyl chlorambucil],fn (%),[5],100%
same,Brain Extraction (%),[7],24%
same,Log Pc,[7],−0.49
same,Log PoS,[7],1.51
same,Pc,[7],321000 ×10⁻⁶ cm/s
same,PcS,[7],32.1 mL/s/g
same,PoS,[7],32.1 mL/s/g
same,Log Po,[7],−0.49
same,Po,[7],0.32 cm/s
same,"Maximal flow—90% extraction, PcS/2.3",[1],14.0 mL/s/g
same,Log Poct,[2]; [8],5.24
same,Log Poct,"[2]; ref Hansch et al. [123], Avdeef [46] or other sources, listed as t-butyl-chlorambucil",5.2
same,Log Doct pH=7.4,[2]; [8],5.24
same,"fu,.p",[3]; rat in vivo measurements,2.0E−03
O [Water],BBB PcS,[7],0.029 mL/s/g
same,"Brain Equilibration t1/2, Measured",[7],1 min
same,Kin Underestimate (linear regression vs two compartment model),[7],54%
same,Log Pc,[7],−3.54
same,Log PoS,[7],−1.54
same,Pc,[7],287 ×10⁻⁶ cm/s
same,PcS,[7],0.029 mL/s/g
same,PoS,[7],0.0287 mL/s/g
same,Log Po,[7],−3.54
same,Po,[7],0.000287 cm/s
same,"Brain Equilibration t1/2, Calculated",[1]; plasma,0.81 min
same,Log Poct,[2]; [8],−0.59
same,Log Doct pH=7.4,[2]; [8],−0.59
same,"fu,.p",[3]; rat in vivo measurements,1.00
